According to PMC11310889, “Ribosomal translation of fluorinated non-canonical amino acids for de novo biologically active fluorinated macrocyclic peptides” (Chemical Science, 2024):
*1 amine or outer side, *2 acyl side, *3 side chain or, on linkers, in order; H or OH if unused. Where a SMILES comes first, the peptide text is derived from it. Bridges are numbered along the chain shown (N, C = ends). [ ]: non-standard residue; d: D form. X1 = O=C(C[C@H](N[*:1])c1ccc(F)cc1)[*:2]; dPhe(4-F) = N[C@H](Cc1ccc(F)cc1)C(=O)O

How the values were obtained:
BAM complex = tested on: T1, BAM complex; assay: SPR binding kinetics to BAM complex; set-up: species or system E. coli; conditions: Biacore T200, 25 °C, multi-cycle kinetics, 1:1 model; for ka for BAM complex: CM5 chip; for Kd: HBS-EP+ buffer pH 7.4 with 0.1% DMSO, BAM complex on CM5 chip (9500 RU)
T1 construct: made in house; host or cells: E. coli BL21(DE3), strain obtained from Xinmiao Fu, Fujian Normal University
Protocol: Expression and purification of the BAM complex
The E. coli BL21(DE3) cells containing all five Bam proteins (BamA, B, C, D, and E) was obtained from Xinmiao Fu of Fujian Normal University and used for expression and purification.
The BL21(DE3) cells plated onto LB-ampicillin agar plates and incubated overnight at 37 °C. A 20 mL culture incubated overnight at 37°C was prepared from a single colony in LB medium supplemented with 100 mg/L of ampicillin. The strain was inoculated into fresh LB liquid medium according to the inoculation ratio of 1:100 and incubated at 37 ℃ for about 4 hours until the OD600 reached about 1.0. The temperature of the incubator was set to 20 ℃ and then cultured for 1 hour, and 200 uM IPTG was added to induce overnight. First of all, the induced cells were collected by freezing centrifuge 3000 rpm for 30 min, and the collected cells were resuspended with Buffer 1 (20 mM Tris-HCl, pH 8.0, 150 mM NaCl), and then crushed low temperature and pressure with a high pressure crusher. The broken cells were centrifuged 1 hour at 4 °C for18000 rpm by high speed centrifuge. After centrifugation at 4 °C 18000 rpm for 1 hour, and the supernatant was discarded and the cell membrane was collected. The collected cell membranes were resuscitated with Buffer 2 (20 mM Tris-HCl, pH 8.0, 300 mM NaCl, 1% DDM) and then dissolved at 4 °C for 2 hours. After dissolving the membrane, the supernatant was collected by high speed centrifuge at 18,000 rpm. The 20 mM imidazole was added to the supernatant and incubated with a 2 mL Ni-NTA sefinoseTM resin column for 1 hour. After incubation, 10 column volumes were washed with Buffer 3 (20 mM Tris-HCl, pH 8.0, 300 mM NaCl, 0.025%DDM) containing 30 mM and 50 mM imidazole respectively. Then, the protein was eluted with Buffer 3 containing 200 mM imidazole, and the eluted protein was collected. Finally, using the 20-fold molar excess of EZ-LinkTM Sulfo-NHS-LC-LC-Biotin for BAM complex, and incubate reaction on ice for 2 hours. After the protein labeling is completed, dialysis is used to purify the labeled protein to remove the remaining unreacted and hydrolyzed biotin reagents. […]
The mobile phase was 0.1% TFA aqueous solution / acetonitrile containing 0.1%
TFA. The purified macrocyclic peptides and fluorinated macrocyclic peptides were confirmed by electrospray ionization mass spectrometry (ESI-MS).
Binding kinetics analysis by SPR
The binding kinetics between the selected peptides and EphA2 were tested by SPR using a Biacore T200 instrument (GE Healthcare) at 25 °C. In this study, the running buffer was HBS-EP+ buffer (10 mM HEPES-KOH (pH 7.4), 150 mM NaCl, 50 μM EDTA, 0.05% Tween 20) containing 0.1% DMSO. Biotin capture kit (GE Healthcare) was used to fix human EphA2 on the surface of Biacore CAP chip with a density of 1050 RU. Five different concentrations of peptides were injected at the flow rate of 30 μL/min, and their kinetic constants were determined. The binding kinetic was quantified by single cycle kinetic method. Finally, the binding sensorgrams was analyzed by Biacore evaluation software, and the standard 1:1 model was used for fitting.
The binding kinetics between the selected peptides and BAM complex were tested by SPR using […]
a Biacore T200 instrument (GE Healthcare) at 25 °C. In this study, the running buffer was HBS-EP+ […]
(§1) 0.1% DMSO. The Series S Sensor Chip CM5 was used to fix BAM complex on the surface of Biacore CM5 chip with a density of 9500 RU. The binding mode was multi-cycle kinetics (one sample concentration one cycle). Finally, the binding sensorgrams was analyzed by Biacore evaluation software, and the standard 1:1 model was used for fitting.
(§2) Preliminary evaluation of the antibacterial activity of macrocyclic peptides against E. coli […]
(§3) Remove the previously preserved E. coli W3110 cells from the -80 °C refrigerator, scrape a little, inoculate it into 1 mL LB liquid medium, and culture overnight in 37°C shaker. The strain was […]

mouse red blood cells = assay type: cell-based
Protocol: as §1, with “a Biacore T200 instrument (GE Healthcare) at 25 °C. In this study, the running buffer was HBS-EP+ buffer (10 mM HEPES-KOH (pH 7.4), 150 mM NaCl, 50 μM EDTA, 0.05% Tween 20) containing 0.1%” for “0.1%”
as §2
as §3, with “was inoculated into fresh LB liquid medium according to the inoculation ratio of 1:100 and incubated at 37℃ until the OD600 reached about 0.47~0.53.” for “was”
Finally, the plate was scanned and counted. […]
the samples were centrifuged at 1000 rpm for 10 min，and take pictures of the pellet after centrifugation. […] The absorbance of the supernatant at the wavelength of 545 nm was measured by microplate reader, and the percentage of hemolysis of each […]

T1 sequence (P0A903 25-344): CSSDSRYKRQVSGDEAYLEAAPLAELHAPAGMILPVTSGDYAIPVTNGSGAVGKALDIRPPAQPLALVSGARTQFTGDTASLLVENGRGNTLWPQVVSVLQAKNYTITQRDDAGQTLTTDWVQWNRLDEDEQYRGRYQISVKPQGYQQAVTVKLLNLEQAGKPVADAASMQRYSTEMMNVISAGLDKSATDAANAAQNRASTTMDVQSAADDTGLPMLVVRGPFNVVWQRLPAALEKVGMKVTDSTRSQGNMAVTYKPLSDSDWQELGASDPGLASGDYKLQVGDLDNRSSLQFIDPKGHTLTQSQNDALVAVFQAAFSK
T1 sequence (P0AC02 20-245, further chain): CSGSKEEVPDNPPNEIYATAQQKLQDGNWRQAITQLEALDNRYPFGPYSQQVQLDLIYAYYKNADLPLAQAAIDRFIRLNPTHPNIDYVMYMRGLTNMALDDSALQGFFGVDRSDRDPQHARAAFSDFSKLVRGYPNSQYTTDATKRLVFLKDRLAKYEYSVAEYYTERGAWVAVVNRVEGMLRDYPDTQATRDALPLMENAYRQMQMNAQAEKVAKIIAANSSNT
T1 sequence (P0A937 20-113, further chain): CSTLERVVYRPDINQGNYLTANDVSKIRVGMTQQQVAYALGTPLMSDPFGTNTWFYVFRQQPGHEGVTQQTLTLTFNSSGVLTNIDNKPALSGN
T1 sequence (P77774 20-392, further chain): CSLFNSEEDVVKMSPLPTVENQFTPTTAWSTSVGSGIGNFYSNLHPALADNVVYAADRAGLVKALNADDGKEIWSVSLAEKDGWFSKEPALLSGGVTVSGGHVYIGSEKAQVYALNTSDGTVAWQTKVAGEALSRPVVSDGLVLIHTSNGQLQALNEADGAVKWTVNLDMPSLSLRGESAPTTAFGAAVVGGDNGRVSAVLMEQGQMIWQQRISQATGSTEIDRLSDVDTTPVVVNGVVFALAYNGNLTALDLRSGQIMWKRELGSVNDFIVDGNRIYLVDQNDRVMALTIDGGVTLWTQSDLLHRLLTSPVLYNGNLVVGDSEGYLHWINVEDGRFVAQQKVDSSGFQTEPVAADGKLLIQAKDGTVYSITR

| SMILES | ka for BAM complex (BAM complex) | Kd (BAM complex) | hemolytic toxicity towards mouse red blood cells (mouse red blood cells) |
| --- | --- | --- | --- |
| CC[C@H](C)[C@@H]1NC(=O)[C@H](Cc2ccccc2)NC(=O)[C@H](Cc2c[nH]cn2)NC(=O)[C@H](CCCCN)NC(=O)[C@@H](Cc2ccc(F)cc2)NC(=O)CSC[C@@H](C(=O)NCC(N)=O)NC(=O)[C@H]([C@@H](C)CC)NC(=O)[C@@H]2CCCN2C(=O)[C@H](CO)NC(=O)[C@H](CCCNC(=N)N)NC(=O)[C@H](Cc2ccc(O)cc2)NC(=O)C[C@@H](c2ccc(F)cc2)NC(=O)[C@H](Cc2ccc(O)cc2)NC1=O [BAM-β3] ({CH2CO}-[dPhe(4-F)]KHFIY[X1]YRSPICG-NH2; thioether N-13) | 2.54 ×10 4 M-1s-1 | 453 nM | low to negligible hemolytic toxicity |
| CC[C@H](C)[C@@H]1NC(=O)[C@@H](Cc2ccc(F)cc2)NC(=O)CSC[C@@H](C(=O)NCC(N)=O)NC(=O)[C@H]([C@@H](C)O)NC(=O)[C@H](Cc2c[nH]cn2)NC(=O)[C@H](CC(C)C)NC(=O)[C@H](Cc2ccc(O)cc2)NC(=O)[C@H](CC(N)=O)NC(=O)[C@@H](Cc2ccc(F)cc2)NC(=O)[C@H]([C@@H](C)O)NC(=O)[C@H](CC(C)C)NC(=O)[C@H](CO)NC(=O)[C@H](CCCCN)NC(=O)[C@H](Cc2c[nH]cn2)NC(=O)[C@H](Cc2c[nH]c3ccccc23)NC1=O [BAM-f2] ({CH2CO}-[dPhe(4-F)]IWHKSLT[dPhe(4-F)]NYLHTCG-NH2; thioether N-15) | 0.90 ×10 4 M-1s-1 | 755 nM | low to negligible hemolytic toxicity |
